For data set [1] the following is noted: cited from earlier work.
Data set [2] is described as follows: Visual observation of wettability by stereomicroscope. The data set is classed as physicochemical. The note with it: one drop of distillate water on 0.1 mg powder. The method, then: Wettability of nanostructured Sildenafil Citrate particles was investigated in distilled water and was visualized by stereomicroscope equipped with CCD camera. 0.1 mg reference and nanostructure Sildenafil powder was placed to the slide and then one drop of distillate water was added to the powder.

A short description of data set [3]: Particle size concluded from X-ray diffractograms. The data set is classed as physicochemical. As to conditions: XRD. From the text: The wide reflection between 15 and 20 20 values indicates the amorphous structure of the Carbopol 971. The characteristic reflections of the crystalline Sildenafil citrate can be found on the XRD diffractogram of nanosized Sildenafil citrate, but with lower intensity.

The source of these data is patent US20120128740A1, “NANOSTRUCTURED […] BASE, ITS PHARMACEUTICALLY ACCEPTABLE SALTS AND CO-CRYSTALS, COMPOSITIONS OF THEM, PROCESS FOR THE PREPARATION THEREOF AND PHARMACEUTICAL COMPOSITIONS CONTAINING THEM” (priority 2009, published 2012).

Regarding `CCCc1nn(C)c2c(=O)[nH]c(-c3cc(S(=O)(=O)N4CCN(C)CC4)ccc3OCC)nc12.O=C(O)CC(O)(CC(=O)O)C(=O)O` [Sildenafil citrate, 1-[[3-(6,7-dihydro-1-methyl-7-oxo-3-propyl-1H-pyrazolo[4,3-d]pyrimidin-5-yl)-4-ethoxyphenyl]sulfonyl]-4-methylpiperazine citrate], the absolute bioavailability in data set [1] (oral) is on record as 41%. In addition, the “dose dependence of AUC and cmax” value in data set [1] (single doses from 1.25 to 200 mg) is reported as “dose-proportional”. Also, the wettability result in data set [2] is “stayed in their aggregated state”. Further, the “particle size from diffractograms” value in data set [3] is 1-2 μm.
